This assay relates to saphenous nerve afferents. The assay is described as follows: Saphenous nerve afferent recordings after topical application to receptive field. The assay is classed as in vivo, rat. The text has this:
Antisense and mis-sense oligonucleotides were 22-mers with phosphorothioate bonds at the last two positions at 5′ and 3′ ends (MWG Biotech, Ebersberg, Germany). Antisense extended from base −10 to base +12 relative to the start of the open reading frame for the rat TRPM8 gene: 5′ C*T*CGAAGGACATCTTGCCGT*G*G 3′, where * represents phosphorothioate linkages. Mis-sense was designed with 4 inversions of C/G or A/T as appropriate at residues 3, 11, 14 and 22, preserving overall G/C content. BLAST searches of both oligonucleotides indicated no significant complementarity to any known gene sequence. 14-day or 7-day osmotic minipumps (for CCI experiments or naïve electrophysiology experiments respectively—Alzet Minipump, models 2002, 2001; Charles River, UK) containing oligonucleotides (1 μg/μl in sterile saline) were connected to canulae inserted under the dura of the spinal cord to level L5/6 and produced a predicted infusion rate of 0.5 μl/h. CCI surgery was performed at the same time as minipump implantation. Sensory tests were carried out to assess the time-course of behavioural sensitisation in animals which had also undergone a CCI injury. Icilin was applied topically rather than intrathecally so as to prevent any interference with the infusion canula. Peripheral nerve recordings and tissue harvesting were carried out after an interval of 4-5 days to allow time for protein knockdown.
Peripheral: Recordings of saphenous (sensory) nerve were made in naïve animals (n=7) to assess the effects of topical icilin on primary afferents. In addition, recordings were carried out on animals which had undergone TRPM8 antisense or mis-sense treatment beginning 4-5 days previously. Rats were anaesthetised (with 0.6 ml 25% urethane/100 g, i.p.) and the saphenous nerve was exposed and dissected from its associated vein and artery. Further dissection under liquid paraffin enabled identification of afferent preparations comprising a small number of fibres. The conduction velocity of single identified afferent fibres was determined using bipolar electrodes and the peripheral stimulus technique^[43]. Following isolation of preparations, icilin (200 μM in water with 0.2% DMF), (−)-menthol (4 mM in 25% ethanol) resiniferatoxin (1 mM in ethanol) or vehicle alone were applied to the hindlimb receptive fields and neuronal responses recorded using the Chart programme (version 3.6). Central: Recordings of spinal dorsal horn neurons were made in CCI animals, as described previously^[39]. Following halothane induction, the jugular vein and trachea were canulated and intravenous anaesthetic delivered: α-chloralose ([…], Fisher) and urethane ([…], Sigma), with small supplementary doses of α-chloralose as required throughout the experiment. Core body temperature was maintained at 37-38° C. by means of a thermostatically controlled heated blanket. The animal was placed in a stereotaxic frame, and the thoracolumbar spinal column was supported using three pairs of swan-necked clamps. A laminectomy was performed at L2-L5, and agar (2% in saline at 37° C.) was delivered over exposed cord to increase mechanical stability. Above the recording region the agar and spinal cord dura were removed and liquid paraffin poured into the pool. Extracellular recordings were made from single multireceptive neurons in laminae I-IV through the centre barrel of a seven-barrelled glass microelectrode filled with 4M NaCl (tip-diameter […], DC resistance 5-8 MΩ). The receptive fields of hair-follicle innervated neurons on the distal hindlimb were identified by an innocuous brush stimulus^[39]. Icilin (200 μM in water with 0.2% DMF) was applied peripherally to the receptive field of individual recorded neurons, and the effect on neuronal response to a rotating brush was recorded and analysed using Spike2 programme (Version 3.2, CED). […]

[1] abbreviates: antisense-treated animals, topical icilin 200 μM, (−)-menthol 4 mM, resiniferatoxin 1 mM.
[2] abbreviates: mis-sense-treated animals, topical icilin 200 μM, (−)-menthol 4 mM.
[3] abbreviates: mis-sense-treated animals, topical icilin 200 μM, (−)-menthol 4 mM, resiniferatoxin 1 mM.

As for `CC(C)[C@@H]1CC[C@@H](C)C[C@H]1O` [(−)-menthol, 1R,2S,5R-(−)-menthol], the activation of afferents result (antisense-treated animals, (−)-menthol 4 mM, 28 identified afferents recorded) is “no obviously activated afferents”. Besides, the “firing frequency after drug” value under setting [1] is on record as 4.8±1.9 Hz. The compound further came in with a recorded fibres activated under setting [2] of 20%. Further, under setting [3], the “firing frequency after drug” value amounted to 38.9±7.6 Hz and the “increase in firing frequency” value was “approximately 8 fold”.
For `O=C1NC(c2cccc([N+](=O)[O-])c2)=CCN1c1ccccc1O` [icilin, 1-(2′-hydroxyphenyl)-4-(3″-nitrophenyl)-1,2,3,6-tetrahydropyrimidin-2-one], the “firing frequency after drug” value reads like this: under setting [1], 12.7±0.6 Hz; (icilin 200 μM, naïve animals, baseline 4.5±2.5 Hz) 31.6 Hz; under setting [3], 23.1±3.2 Hz. Moreover, the “increase in firing frequency” value runs as follows: (antisense-treated animals, topical icilin 200 μM, resiniferatoxin 1 mM) “approximately 2 fold”; under setting [3], 7 fold. The “recorded slowly conducting fibres activated” value (antisense-treated naïve animals, icilin 200 μM topical, 3 out of 34) stood at 8.8%. For the same compound, the “recorded fine afferents with significant increase in firing frequency” value (icilin 200 μM to receptive field, naïve animals, 40 out of 185) stood at 21.6%. The “effect on large myelinated mechanoreceptors” value (icilin 200 μM, conduction velocities 6.8-15 ms^−1, n=43) is reported as “unaffected”. The “mean time to peak effect” value (icilin 200 μM, naïve animals) is 3.3 ± 0.5 min. Further, the “mean increase in firing frequency” value (icilin 200 μM, naïve animals, from baseline of 4.5±2.5 Hz) amounted to 7 fold. The compound also showed a recorded fibres activated under setting [2] of 25%.

Source of the values: patent US20100137344A1, “INDUCTION OF ANALGESIA IN NEUROPATHIC PAIN” (University Court of the University of Edinburgh, priority 2006, published 2010).
